# Measurements as given in US10434112B2, “Use of agonists of formyl peptide receptor 2 for treating dermatological diseases” (Allergan, Inc., priority 2013, dated 2019).
# Legend:
# [1] = biological target: FPRL-1 (Homo sapiens (Human), UniProt P25090); test: FPRL-1 Ga16-CHO EC50 (efficacy); assay type: cell-based; details: for FPRL-1 Gal16-CHO (efficacy): Table 3; for FPRL-1 Gal16-CHO (efficacy) / FPRL-1 Ga16-CHO (efficacy): value in brackets
# [2] = biological target: human FPR2 receptor (Homo sapiens (Human), UniProt P25090); test: FLIPR Ca+2 response in HEK-Gα16 cells stably expressing the human FPR2 receptor; assay type: cell-based; parameters: FPR2 (% eff): unit not given here; details: Table 4; value in brackets, given mostly as fraction
# In short: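 HEK-Gα16 cells stably expressing human FPR2, loaded with 2 μM Fluo-4 in HBSS/20 mM HEPES for 40 min at 37° C., then washed. Ligands added in HBSS/Hepes and Ca+2 responses recorded on FLIPR in relative fluorescence units.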
# [3] = tested on: LL-37-induced inflammation in mouse ears; test: LL37-induced model of rosacea in mice (ear thickness); assay type: in vivo; details: topical application to ears; FIG. 2; p<0.05 vs. vehicle at all time points
# Protocol: Prior to dosing, animals are lightly anaesthetized with isofluorane and baseline right and left ear thickness measurements are made with a digital caliper (Mitutoyo 293-340). At t=−1 hrs, animals are lightly anaesthetized with isoflurane to allow topical application (dorsal side) of 10 μL of FPR2 agonist formulated in a vehicle consisting of PBS:ethanol (50:50), or vehicle control to both ears. At t=0 hr, mice are re-anaesthetized. Following ear thickness measurements, 20 uL of LL-37 (100 μM) is injected into the right ear, while PBS is injected into the left ear. Additional ear thickness measurements are taken at t=3 and 6 hours. After the last time point, mice are euthanized by CO2 inhalation and ears collected for additional analyses.
# FPRL-1, sequence (P25090 whole entry): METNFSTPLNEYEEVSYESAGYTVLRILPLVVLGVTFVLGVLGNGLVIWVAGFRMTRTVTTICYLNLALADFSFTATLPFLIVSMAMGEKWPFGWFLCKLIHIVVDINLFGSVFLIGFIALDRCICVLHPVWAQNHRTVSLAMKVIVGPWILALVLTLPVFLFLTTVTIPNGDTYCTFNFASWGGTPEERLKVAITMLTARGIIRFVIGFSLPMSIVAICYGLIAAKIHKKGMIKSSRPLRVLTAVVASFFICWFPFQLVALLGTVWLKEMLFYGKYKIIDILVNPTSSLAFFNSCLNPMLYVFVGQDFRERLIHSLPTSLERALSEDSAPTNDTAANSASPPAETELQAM
# human FPR2 receptor, sequence (P25090 whole entry): as above
structure (smiles),measurement,setting,value
"O=C(CN1C(=O)C2CC=CCC2C1=O)Nc1ccc(Br)cc1 (centres unmarked) [N-(4-bromophenyl)-1,3,3a,4,7,7a-hexahydro-1,3-dioxo-2H-isoindole-2-acetamide]",FPRL-1 Gal16-CHO (efficacy),[1],0.98
O=C(Nc1ccc(Br)cc1)N[C@H](C(=O)O)c1ccccc1 [(2S)-({[(4-bromophenyl)amino]carbonyl}amino) (phenyl)acetic acid],FPRL-1 Ga16-CHO (efficacy),[1]; Table 1,0.94
COc1ccc(NC(=O)N[C@@H](Cc2ccccc2)C(=O)O)cc1 [(2S)-2-({[(4-methoxyphenyl)amino]carbonyl}amino)-3-phenylpropanoic acid],FPRL-1 Ga16-CHO (efficacy),[1]; Table 1,0.90
"Cc1ccc(NC(=O)NN2C(=O)NC3(CCC(C)CC3)C2=O)cc1 (centres unmarked) [1-(8-methyl-2,4-dioxo-1,3-diazaspiro[4,5]decan-3-yl)-3-(p-tolyl)urea]",FPRL-1 Ga16-CHO (efficacy),[1]; Table 2,0.91
O=C(Nc1ccc(Br)cc1)NC(Cc1c[nH]c2ccccc12)C(=O)O (centres unmarked) [2-({[(4-bromophenyl)amino]carbonyl}amino)-3-(1H-indol-3-yl)propanoic acid],FPRL-1 Ga16-CHO (efficacy),[1]; Table 1,0.89
"O=C(Nc1ccc(Cl)cc1)NN1C(=O)NC2(CCCCC2)C1=O [1-(4-chlorophenyl)-3-(2,4-dioxo-1,3-diazaspiro[4,5]decan-3-yl) urea]",FPRL-1 Ga16-CHO (efficacy),[1]; Table 2,0.98
"O=C(Nc1ccc(Cl)c(Cl)c1)N[C@@H](Cc1ccccc1)C(=O)O [(2S)-2-({[(3,4-dichlorophenyl)amino]carbonyl}amino)-3-phenylpropanoic acid]",FPRL-1 Ga16-CHO (efficacy),[1]; Table 1,0.57
"O=C(CN1C(=O)C2C3C=CC(C3)C2C1=O)Nc1ccc(Br)cc1 (centres unmarked) [N-(4-bromophenyl)-1,3,3a,4,7,7a-hexahydro-1,3-dioxo-4,7-methano-2H-isoindole-2-acetamide]",FPRL-1 Gal16-CHO (efficacy),[1],0.90
"COc1ccc(NC(=O)NC(Cc2ccccc2)C(=O)O)cc1OC (centres unmarked) [2-({[(3,4-dimethoxyphenyl)amino]carbonyl}amino)-3-phenylpropanoic acid]",FPRL-1 Ga16-CHO (efficacy),[1]; Table 1,0.72
"CC[C@H](C)[C@H](NC(=O)Nc1ccc(Br)cc1)C(=O)NCC(=O)O [Compound 3, {[(2S,3S)-2-{[(4-bromophenyl)carbamoyl]amino}-3-methylpentanoyl]amino} acetic acid]",FPR2 (% eff),[2],1.0
same,Anti-inflammatory activity in the LL-37-induced rosacea mouse model,[3],Anti-inflammatory activity
O=C(Nc1ccc(Br)cc1)NC(Cc1ccccc1)C(=O)O (stereo in doubt) [(2S)-2-({[(4- bromophenyl)amino]carbonyl}amino)- 3-phenylpro] [(2S)-2-({[(4-bromophenyl)amino]carbonyl}amino)-3-phenylpropanoic acid],FPRL-1 Ga16-CHO (efficacy),[1]; Table 1,1.0
O=C(Nc1ccc(Br)cc1)NC(Cc1ccccc1)C(=O)O (stereo in doubt) [(2S)-2-({[(4-bromophenyl)amino]carbonyl}amino)-3-phenylpropanoic acid],EC50,[1]; Table 1,31 nM
"O=C(CN1C(=O)NC2(CCCCC2)C1=O)Nc1ccc(Br)cc1 [N-(4-bromophenyl)-2-(2,4-dioxo-1,3-diazaspiro[4.5]dec-3-yl)acetamide]",FPRL-1 Gal16-CHO (efficacy),[1],0.89
O=C(Nc1ccc(OC(F)(F)F)cc1)NC(Cc1ccccc1)C(=O)O (centres unmarked) [3-phenyl-2-[({[4-(trifluoromethoxy)phenyl]amino}carbonyl)amino]propanoic acid],FPRL-1 Ga16-CHO (efficacy),[1]; Table 1,0.79
O=C(Nc1ccc(C(F)(F)F)cc1)N[C@@H](Cc1ccccc1)C(=O)O [(2S)-3-phenyl-2-[({[4-(trifluoromethyl)phenyl]amino}carbonyl)amino]propanoic acid],FPRL-1 Ga16-CHO (efficacy),[1]; Table 1,0.97
"CC1(CCc2ccccc2)NC(=O)N(NC(=O)Nc2ccccc2F)C1=O (centres unmarked) [1-(2-fluorophenyl)-3-[4-methyl-2,5-dioxo-4-(2-phenylethyl)imidazolidin-1-yl]urea]",FPRL-1 Ga16-CHO (efficacy),[1]; Table 2,0.94
"CC(C)C[C@H](NC(=O)Nc1ccc(Br)cc1)C(=O)NCC(=O)O [Compound 8, {[(2S)-2-{[(4-bromophenyl)carbamoyl]amino}-4-methylpentanoyl]amino} acetic acid]",Anti-inflammatory activity in the LL-37-induced rosacea mouse model,[3],Anti-inflammatory activity
"CC(C)C[C@H](NC(=O)Nc1ccc(Br)cc1F)C(=O)NCC(=O)O [Compound 7, {[(2S)-2-{[(4-bromo-2-fluorophenyl)carbamoyl]amino}-4-methylpentanoyl]amino} acetic acid]",Anti-inflammatory activity in the LL-37-induced rosacea mouse model,[3],Anti-inflammatory activity
O=C(Nc1ccc(Cl)cc1)NC(Cc1ccccc1)C(=O)O (centres unmarked) [2-({[(4-chlorophenyl)amino]carbonyl}amino)-3-phenylpropanoic acid],FPRL-1 Ga16-CHO (efficacy),[1]; Table 1,1.0
"CC1(CCc2ccccc2)NC(=O)N(NC(=O)Nc2ccccc2)C1=O (centres unmarked) [1-[4-methyl-2,5-dioxo-4-(2-phenylethyl)imidazolidin-1-yl]-3-phenylurea]",FPRL-1 Ga16-CHO (efficacy),[1]; Table 2,1.0
CC(C)[C@H](NC(=O)Nc1ccc(Br)cc1)C(=O)O [(2S)-2-({[(4-bromophenyl)amino]carbonyl}amino)-3-methylbutanoic acid],FPRL-1 Ga16-CHO (efficacy),[1]; Table 1,0.91
"CCC1(C)NC(=O)N(NC(=O)Nc2ccc(Cl)cc2)C1=O (centres unmarked) [1-(4-chlorophenyl)-3-(4-ethyl-4-methyl-2,5-dioxoimidazolidin-1-yl)urea]",FPRL-1 Ga16-CHO (efficacy),[1]; Table 2,0.96
